Patent US20210268017A1, “MOLECULAR HYDROGEN-CONTAINING COMPOSITION FOR PREVENTION AND/OR IMPROVEMENT OF PNEUMONIA” (MiZ Company Limited, priority 2020, published 2021)

Key:
[1] = test system: chronic bronchitis and obstructive lung bronchitis; conditions: mice; earlier study; cited from earlier work
[2] = room temperature, normal pressure; also printed as 1.6 mg/L; cited from earlier work
interstitial pneumonia = conditions: patient; drip infusion 1 ppm hydrogen 250 ml plus hydrogen gas inhalation (6 to 7%, 120 ml/min) 30 to 60 minutes once weekly for 8 weeks
Procedure: A patient who was diagnosed as having interstitial pneumonia received a drip infusion of hydrogen (1 ppm hydrogen, 250 ml) and inhalation of hydrogen gas over 30 minutes to 60 minutes once weekly for 8 weeks. MHG-2000α manufactured by MiZ Company Limited (hydrogen gas concentration 6 to 7%, 120 ml/min) was used for inhalation of a hydrogen gas.

[HH] [hydrogen, molecular hydrogen]
effect on chronic bronchitis and obstructive lung bronchitis [1]: improved chronic bronchitis and obstructive lung bronchitis
concentration of hydrogen dissolved in water [2]: approximately 1.6 ppm
improvement of interstitial pneumonia, confirmed by disappearance of ground-glass opacity in the CT finding (interstitial pneumonia): Significant improvement
